Data on 63 compounds can be found in patent US20180170941A1 (priority 2016, published 2018).

The target in one experiment is T1, α5β3γ2 GABAA receptors (Ltk cell membranes) (Homo sapiens, UniProt P18507+P31644).
T1 construct: membranes
T1 sequence (P31644 32-462): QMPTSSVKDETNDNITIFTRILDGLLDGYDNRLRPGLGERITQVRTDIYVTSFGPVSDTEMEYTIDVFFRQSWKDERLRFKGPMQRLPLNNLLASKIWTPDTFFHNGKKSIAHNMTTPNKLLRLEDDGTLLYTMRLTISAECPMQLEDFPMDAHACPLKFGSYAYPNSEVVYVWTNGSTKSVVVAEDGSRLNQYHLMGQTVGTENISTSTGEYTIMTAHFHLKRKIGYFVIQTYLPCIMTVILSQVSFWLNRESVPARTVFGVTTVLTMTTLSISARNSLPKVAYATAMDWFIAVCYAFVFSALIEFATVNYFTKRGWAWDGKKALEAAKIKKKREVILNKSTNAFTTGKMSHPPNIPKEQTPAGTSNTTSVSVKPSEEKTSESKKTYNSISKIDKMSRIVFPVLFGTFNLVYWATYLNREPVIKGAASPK
T1 sequence (P28472 26-473 partner): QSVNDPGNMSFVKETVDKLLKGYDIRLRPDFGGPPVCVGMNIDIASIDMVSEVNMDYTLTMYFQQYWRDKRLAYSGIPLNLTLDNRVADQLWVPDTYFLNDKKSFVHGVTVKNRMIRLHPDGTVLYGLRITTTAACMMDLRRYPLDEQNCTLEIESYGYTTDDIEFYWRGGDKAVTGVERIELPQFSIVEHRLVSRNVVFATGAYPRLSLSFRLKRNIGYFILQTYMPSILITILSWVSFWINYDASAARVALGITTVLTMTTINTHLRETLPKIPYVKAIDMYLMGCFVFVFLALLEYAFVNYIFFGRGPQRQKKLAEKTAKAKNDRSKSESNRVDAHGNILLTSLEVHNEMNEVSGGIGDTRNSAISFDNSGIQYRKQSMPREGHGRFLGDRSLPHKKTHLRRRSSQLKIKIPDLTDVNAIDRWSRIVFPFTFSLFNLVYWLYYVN
T1 sequence (P18507 40-475): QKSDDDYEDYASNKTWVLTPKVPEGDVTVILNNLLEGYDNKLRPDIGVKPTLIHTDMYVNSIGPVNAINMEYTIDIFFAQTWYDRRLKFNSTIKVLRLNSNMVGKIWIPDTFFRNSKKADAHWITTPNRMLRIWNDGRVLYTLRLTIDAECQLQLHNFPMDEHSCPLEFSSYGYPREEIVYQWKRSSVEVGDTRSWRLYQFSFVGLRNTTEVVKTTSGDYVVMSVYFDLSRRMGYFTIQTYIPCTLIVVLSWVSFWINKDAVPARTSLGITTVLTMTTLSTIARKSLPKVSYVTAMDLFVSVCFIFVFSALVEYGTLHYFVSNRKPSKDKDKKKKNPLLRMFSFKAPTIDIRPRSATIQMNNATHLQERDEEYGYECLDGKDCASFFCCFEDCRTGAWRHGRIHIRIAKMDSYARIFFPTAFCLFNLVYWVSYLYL
The experiment can be described thus: Binding activity of test compounds on GABAAR: inhibition of [3H]Ro15-1788 binding.
Settings: not given
As for the experimental part: Tissue culture and Membrane Preparation: The binding was performed on Ltk cells stably expressing GABAA receptors: α1β1γ2, α2β3γ2, α3β3γ2 and α5β3γ2 (provided by Merck Co., NJ, USA). Cells were seeded in 100 mm culture plates in DMEM/F12 medium containing 10% serum and antibiotics in 5% CO2 and allowed to grow for 1-2 days. GABAAR expression was then induced by dexamethasone as follows: 0.5 μM for 1 day for α5 containing and 2μM for 3 days for α1, α2 and α3 containing GABAARs. After induction, cells were collected by scraping into Dulbecco's Phosphate buffered saline (DPBS, pH 7.4, Invitrogen, Carlsbad, Calif., USA) and centrifuged at 150×g for 10 min. The pellet was washed twice by re-suspension and centrifugation. The cell pellets from at least 5 different preps were combined, suspended in the binding assay buffer (50 mM KH2P4; 1 mM EDTA; 0.2 M KCl, pH 7.4) and membranes prepared by sonication (3-5 times, 30 sec) using Branson Sonifier 150 (G.Heinmann, Germany). Protein content was determined using BCA assay (Bio-Rad Labs, Reinach, Switzerland) with Bovine Serum Albumin (Sigma Aldrich, St. Louis, Mo., USA) as the standard. Aliquots were prepared and stored at −20° C. for further use in binding assays.
Ligand Binding: Saturation binding curves were obtained by incubating membranes with increasing concentrations (0.01-8 nM) of [^3H]Ro15-1788 (Flumazepil, 75-85 Ci/mmol, PerkinElmer, MA, USA), with nonspecific binding measured in the presence of 10 μM diazepam.
All binding assays were performed for 1 h at 4° C. in assay buffer. The total assay volume was 0.5 ml containing 0.2 mg/ml protein for α5 and 0.4 mg/ml for α1, α2, and α3 containing GABAAR membranes. Incubations were terminated by filtration through GF/B filters using a 24-Cell Harvestor (Brandel, Gaithersburg, Md., USA) followed by 3 washes with ice-cold assay buffer. Filters were transferred to scintillation vials, 5 ml scintillation liquid added, vortex-mixed and kept in dark. Next day, radioactivity was obtained using a scintillation counter (Beckman Coulter, Brea, Calif., USA). All assays were performed in triplicate.
Data Analyses: Saturation and inhibition curves were obtained using GraphPad Prism software (GraphPad Software, Inc., CA, USA).
A word on the Ki: it is a measure of affinity in units of concentration, obtained from inhibition or displacement. `COCc1nnc2n1Cc1c(C3=NCC(C)(C)CO3)ncn1-c1ccc(Cl)cc1-2` [Compound 239]: the Ki was more than 1000 nM.

The same experiment, now with this note: GABA α5 Binding Ki Values, inhibition of [3H]Ro15-1788 binding; reported as ranges.
For `C#Cc1ncn2c1Cn1c(COc3ccccc3)nnc1-c1cc(Cl)ccc1-2` [Compound 205], the Ki was less than 100 nM.
`COCc1nnc2n1Cc1c(-c3nc(C(C)C)no3)ncn1-c1ccc(Cl)cc1-2` [Compound 206] returned a Ki of less than 100 nM.
On the same count and under the same terms, the value for `COc1ccc2c(c1)-n1nnc(Cc3ccccc3)c1Cc1c(C#N)ncn1-2` [Compound 207] was less than 100 nM; that for `COc1ccc2c(c1)-n1nnc(Cc3ccccc3Cl)c1Cc1c(C#N)ncn1-2` [Compound 208] was less than 100 nM.
Still for that read-out and setting: to `COc1ccc2c(c1)-n1nnc(Cc3cccc(Cl)c3)c1Cc1c(C#N)ncn1-2` [Compound 209] belongs less than 100 nM; to `COc1ccc2c(c1)-n1nnc(Cc3cccnc3)c1Cc1c(C#N)ncn1-2` [Compound 210], less than 100 nM.
Still for that read-out and setting: to `CCOCc1nnc2n1Cc1c(Br)ncn1-c1ccc(Cl)cc1-2` [Compound 216] belongs less than 100 nM; to `COCc1nnc2n1Cc1c(Br)ncn1-c1ccc(Cl)cc1-2` [Compound 217], less than 100 nM; to `C#Cc1ncn2c1Cc1c(C(=O)c3ccc(F)cc3)nnn1-c1cc(OC)ccc1-2` [Compound 218], less than 100 nM.
Take `C#Cc1ncn2c1Cc1c(C(=O)c3ccc(Cl)cc3)nnn1-c1cc(OC)ccc1-2` [Compound 219]: the Ki lay in the range of 100 to 1000 nM.
The same measure, in the same setting: the value for `C=Cc1ncn2c1Cc1c(Cc3ccccc3)nnn1-c1cc(OC)ccc1-2` [Compound 220] was 100 to 1000 nM; that for `C=Cc1ncn2c1Cc1c(Cc3ccc(C)cc3)nnn1-c1cc(OC)ccc1-2` [Compound 221] was more than 1000 nM.
`COc1ccc2c(c1)-n1nnc(COc3ccc(F)cc3)c1Cc1c(C#N)ncn1-2` [Compound 222] showed a Ki of less than 100 nM.
For `COc1ccc2c(c1)-n1nnc(COc3ccccc3F)c1Cc1c(C#N)ncn1-2` [Compound 223], the Ki is less than 100 nM.
`COc1ccc2c(c1)-n1nnc(COc3ccccc3)c1Cc1c(C#N)ncn1-2` [Compound 224]: the Ki was less than 100 nM.
The same measure, in the same setting: to `COc1ccc2c(c1)-n1nnc(COc3cccc(Br)c3)c1Cc1c(C#N)ncn1-2` [Compound 225] belongs less than 100 nM; to `N#Cc1ncn2c1Cc1c(COc3ccccc3)nnn1-c1cc(Cl)ccc1-2` [Compound 226], less than 100 nM.
`N#Cc1ncn2c1Cc1c(COc3cccc(F)c3)nnn1-c1cc(Cl)ccc1-2` [Compound 227] showed a Ki of less than 100 nM.
Same read-out and setting: the value for `Fc1ccc2c(c1)-n1cnc(Br)c1Cc1c(Cc3ccccc3)nnn1-2` [Compound 229] was more than 1000 nM; that for `CC(C)c1nc(-c2ncn3c2Cc2c(C(=O)c4ccc(F)cc4)nnn2-c2ccc(F)cc2-3)no1` [Compound 230] was less than 100 nM; that for `CC(C)c1nc(-c2ncn3c2Cc2c(Cc4ccc(F)cc4)nnn2-c2ccc(F)cc2-3)no1` [Compound 231] was more than 1000 nM.
`COc1ccc2c(c1)-c1nnc(COc3ccccc3)n1Cc1c(Br)ncn1-2` [Compound 232]: the Ki was less than 100 nM.
On the same count and under the same terms, to `COCc1nnc2n1Cc1c(-c3cc(C)no3)ncn1-c1ccc(Cl)cc1-2` [Compound 233] belongs less than 100 nM.
The compound `COc1ccc2c(c1)-c1nnc(COc3cccnc3)n1Cc1c(Br)ncn1-2` [Compound 235] registered a Ki of less than 100 nM.
The same measure, in the same setting: the value for `C#Cc1ncn2c1Cn1c(COc3ccccc3)nnc1-c1cc(OC)ccc1-2` [Compound 236] was less than 100 nM.
For the compound `COCc1nnc2n1Cc1c(C3=NCCCO3)ncn1-c1ccc(Cl)cc1-2` [Compound 237], the Ki lay within 100 to 1000 nM.
`COCc1nnc2n1Cc1c(C3=NCCO3)ncn1-c1ccc(Cl)cc1-2` [Compound 238] registered a Ki of less than 100 nM.
For `COCc1nnc2n1Cc1c(C3=N[C@@H](C(C)C)CO3)ncn1-c1ccc(Cl)cc1-2` [Compound 240], the Ki was in the range of 100 to 1000 nM.
Consider `C#Cc1ncn2c1Cn1c(COc3cccnc3)nnc1-c1cc(OC)ccc1-2` [Compound 241], for which the Ki is less than 100 nM.
Same read-out and setting: the value for `COCc1nnc2n1Cc1c(C3=NC(c4ccccc4)CO3)ncn1-c1ccc(Cl)cc1-2` (stereo not drawn) [Compound 242] was less than 100 nM.
The same measure, in the same setting: the value for `COCc1nnc2n1Cc1c(-c3nc(C)co3)ncn1-c1ccc(Cl)cc1-2` [Compound 244] was less than 100 nM.
The same measure, in the same setting: to `COCc1nnc2n1Cc1c(-c3nc(-c4ccccc4)co3)ncn1-c1ccc(Cl)cc1-2` [Compound 245] belongs less than 100 nM; to `COCc1nnc2n1Cc1c(-c3nc(C(C)C)co3)ncn1-c1ccc(Cl)cc1-2` [Compound 246], 100 to 1000 nM; to `CNC(=O)c1nnn2c1Cc1c(Br)ncn1-c1ccc(OC)cc1-2` [Compound 247], 100 to 1000 nM.
`COc1ccc2c(c1)-n1nnc(C(=O)N3CCCC3)c1Cc1c(Br)ncn1-2` [Compound 248] yielded a Ki of 100 to 1000 nM.
In the case of `COCc1nnc2n1Cc1c(-c3ncco3)ncn1-c1ccc(Cl)cc1-2` [Compound 249], the Ki is less than 100 nM.
The same measure, in the same setting: the value for `COc1ccc2c(c1)-n1nnc(CN3CCCC3)c1Cc1c(C#N)ncn1-2` [Compound 250] was more than 1000 nM.
On the same count and under the same terms, to `COc1ccc2c(c1)-n1nnc(CN3CCCCC3)c1Cc1c(C#N)ncn1-2` [Compound 251] belongs more than 1000 nM; to `CCN(CC)Cc1nnn2c1Cc1c(C#N)ncn1-c1ccc(OC)cc1-2` [Compound 252], more than 1000 nM.
Still for that read-out and setting: the value for `COc1ccc2c(c1)-n1nnc(CN3CCC(c4ccccc4)CC3)c1Cc1c(C#N)ncn1-2` [Compound 253] was more than 1000 nM.
`CCOCc1nnc2n1Cc1c(-c3nc(C(C)C)no3)ncn1-c1ccc(Cl)cc1-2` [Compound 254] registered a Ki of less than 100 nM.
Same read-out and setting: to `CCOCc1nnc2n1Cc1c(-c3nc(C)no3)ncn1-c1ccc(Cl)cc1-2` [Compound 255] belongs less than 100 nM.
`C#Cc1ncn2c1Cn1c(COC)nnc1-c1cc(Cl)ccc1-2` [Compound 256]: the Ki is less than 100 nM.
Still for that read-out and setting: to `COc1ccc2c(c1)-n1nncc1Cc1c(-c3nc(C(C)C)no3)ncn1-2` [Compound 257] belongs less than 100 nM.
Same read-out and setting: to `COc1ccc2c(c1)-n1nncc1Cc1c(-c3nc(C)no3)ncn1-2` [Compound 258] belongs less than 100 nM; to `CCOCc1nnc2n1Cc1c(C3=NC(C)CO3)ncn1-c1ccc(Cl)cc1-2` (stereo not drawn) [Compound 259], less than 100 nM.
Same read-out and setting: to `CCOCc1nnc2n1Cc1c(C3=NC(c4ccccc4)CO3)ncn1-c1ccc(Cl)cc1-2` (stereo not drawn) [Compound 260] belongs less than 100 nM.
Take `C#Cc1ncn2c1Cn1c(COCC)nnc1-c1cc(Cl)ccc1-2` [Compound 261]: the Ki was less than 100 nM.
Same read-out and setting: to `COc1ccc2c(c1)-n1nnc(/C=C/c3ccccc3)c1Cc1c(C#N)ncn1-2` [Compound 262] belongs more than 1000 nM; to `COCc1nnc2n1Cc1c(C3=N[C@H](c4ccccc4)CO3)ncn1-c1ccc(Cl)cc1-2` [Compound 263], less than 100 nM; to `COCc1nnc2n1Cc1c(C3=N[C@@H](c4ccccc4)CO3)ncn1-c1ccc(Cl)cc1-2` [Compound 264], less than 100 nM.
Same read-out and setting: the value for `COCc1nnc2n1Cc1c(C3=N[C@@H](Cc4ccccc4)CO3)ncn1-c1ccc(Cl)cc1-2` [Compound 265] was 100 to 1000 nM; that for `COCc1nnc2n1Cc1c(C3=N[C@@H](CC4CCCCC4)CO3)ncn1-c1ccc(Cl)cc1-2` [Compound 266] was 100 to 1000 nM; that for `COCc1nnc2n1Cc1c(C3=N[C@H](CC(C)C)CO3)ncn1-c1ccc(Cl)cc1-2` [Compound 267] was 100 to 1000 nM.
The same measure, in the same setting: to `CC(C)OCc1nnc2n1Cc1c(C3=N[C@H](c4ccccc4)CO3)ncn1-c1ccc(Cl)cc1-2` [Compound 268] belongs less than 100 nM; to `CC(C)OCc1nnc2n1Cc1c(C3=N[C@@H](c4ccccc4)CO3)ncn1-c1ccc(Cl)cc1-2` [Compound 270], less than 100 nM.
Regarding `CCOCc1nnc2n1Cc1c(C3=N[C@H](c4ccccc4)CO3)ncn1-c1ccc(Cl)cc1-2` [Compound 271], the Ki is less than 100 nM.
`COc1ccc2c(c1)-n1nnc(-c3ccccc3)c1Cc1c(-c3nc(C(C)C)no3)ncn1-2` [Compound 272] registered a Ki of more than 1000 nM.
The same measure, in the same setting: the value for `COc1ccc2c(c1)-n1nnc(-c3ccccc3)c1Cc1c(-c3nc(C)no3)ncn1-2` [Compound 273] was 100 to 1000 nM; that for `COCc1nnc2n1Cc1c(COc3ccccn3)ncn1-c1ccc(Cl)cc1-2` [Compound 274] was 100 to 1000 nM.
Same read-out and setting: the value for `CCOCc1nnc2n1Cc1c(C3=N[C@@H](c4ccccc4)CO3)ncn1-c1ccc(Cl)cc1-2` [Compound 275] was less than 100 nM; that for `COc1ccc2c(c1)-n1nnc(C)c1Cc1c(-c3nc(C(C)C)no3)ncn1-2` [Compound 277] was less than 100 nM.
